pIC50, pKi: −log10 of the molar value.
Key:
Tyrosinase [1] = biological target: T1, Tyrosinase (Agaricus bisporus, UniProt O42713); assay: Inhibition of mushroom tyrosinase by Lineweaver-Burke double reciprocal plot analysis
T1 sequence (O42713 whole entry): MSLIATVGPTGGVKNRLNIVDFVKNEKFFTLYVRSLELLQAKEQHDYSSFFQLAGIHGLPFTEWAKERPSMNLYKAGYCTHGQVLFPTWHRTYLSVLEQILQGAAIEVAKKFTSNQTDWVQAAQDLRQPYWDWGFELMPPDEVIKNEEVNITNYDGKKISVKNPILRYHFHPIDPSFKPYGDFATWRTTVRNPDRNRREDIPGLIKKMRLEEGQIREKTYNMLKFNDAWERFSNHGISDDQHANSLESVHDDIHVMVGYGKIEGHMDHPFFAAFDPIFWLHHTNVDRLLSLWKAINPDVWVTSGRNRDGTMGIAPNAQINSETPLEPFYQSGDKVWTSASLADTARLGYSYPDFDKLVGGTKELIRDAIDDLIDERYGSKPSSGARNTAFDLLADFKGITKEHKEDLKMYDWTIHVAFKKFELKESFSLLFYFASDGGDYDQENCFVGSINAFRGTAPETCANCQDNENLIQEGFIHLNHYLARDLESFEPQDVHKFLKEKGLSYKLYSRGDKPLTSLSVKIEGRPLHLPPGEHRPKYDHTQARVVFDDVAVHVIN

Tyrosinase [2] = biological target: T1, Tyrosinase
Description: Inhibition of mushroom tyrosinase after 10 mins by L-DOPA oxidation assay

Row | pKi (Tyrosinase [1]) | pIC50 (Tyrosinase [2]) | Structure (SMILES)
1 | 4.32 | 4.13 | O=Cc1cc(Cc2ccc(O)c(C=O)c2)ccc1O
2 |  | 3.16 | COc1cc(Cc2cc(C=O)c(O)c(OC)c2)cc(C=O)c1O
3 |  | 3.93 | COc1cc(O)c(C=O)cc1Cc1cc(C=O)c(O)cc1OC
4 |  | 3.28 | O=Cc1cc(Cc2cc(O)c(O)c(C=O)c2)cc(O)c1O
5 |  | 4.12 | O=Cc1cc(Cc2cc(C=O)c(O)cc2O)c(O)cc1O
